Common to all, as to assay: Radioligand binding, transfected HEK293 cell membranes
Common to all, as to conditions: HEK cell membranes, n=4

Test [1] addresses T1, P318A mutant 5-HT3 receptor (Mus musculus, UniProt P23979, P345A).
T1 construct: expressed in transfected cells; host or cells: HEK293 cells (membranes)
T1 sequence (P23979 24-489 P345A): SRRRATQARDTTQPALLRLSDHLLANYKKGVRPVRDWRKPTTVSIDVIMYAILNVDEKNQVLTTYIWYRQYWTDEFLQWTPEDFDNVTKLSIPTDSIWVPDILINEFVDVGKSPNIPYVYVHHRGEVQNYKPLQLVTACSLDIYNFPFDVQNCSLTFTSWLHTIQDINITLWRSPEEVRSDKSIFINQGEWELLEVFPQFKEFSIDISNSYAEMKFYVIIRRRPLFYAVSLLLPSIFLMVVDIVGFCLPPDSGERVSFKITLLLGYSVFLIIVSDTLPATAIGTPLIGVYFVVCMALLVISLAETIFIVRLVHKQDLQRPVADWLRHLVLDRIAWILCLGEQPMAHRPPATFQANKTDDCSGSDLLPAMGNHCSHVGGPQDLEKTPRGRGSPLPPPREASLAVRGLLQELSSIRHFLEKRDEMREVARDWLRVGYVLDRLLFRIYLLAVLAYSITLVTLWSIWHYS
As to the method: (§1) One method to explore this is to perform radiolabeled ligand binding to examine the parameters associated with the binding site.
(§2) This was undertaken as previously described.[23] Briefly, transfected HEK293 cell membranes were incubated in 0.5 ml of HEPES buffer containing the 5-HT3 receptor antagonist [^3H]GR65630 to label cell surface receptors. Nonspecific binding was determined using 1 μM quipazine. Data were analyzed by iterative curve fitting using Prism. Values are presented as mean ± SEM.

Test [2] addresses T2, H323A mutant 5-HT3 receptor (Mus musculus, UniProt P23979, H350A).
T2 construct: expressed in transfected cells; host or cells: HEK293 cells (membranes)
T2 sequence (P23979 24-489 H350A): T1 sequence (P23979 24-489 P345A) with A322P, H327A
The protocol:
as §1, §2

The next test concerns the target T3, WT 5-HT3 receptor (Mus musculus, UniProt P23979).
T3 construct: expressed in transfected cells; host or cells: HEK293 cells (membranes)
T3 sequence (P23979 24-489): T1 sequence (P23979 24-489 P345A) with A322P
As to the method: as §1, §2

Substitutions are numbered along the chain they refer to.

Regarding `Cc1[nH]cnc1CCC(=O)c1cn(C)c2ccccc12` [[^3H]GR65630], the Bmax amounted to 0.9 ± 0.2 pmol/mg protein in test [1], 1.0 ± 0.1 pmol/mg protein in test [2] and 1.1 ± 0.4 pmol/mg protein at WT 5-HT3 receptor. Moreover, at WT 5-HT3 receptor, the Kd stood at 0.25 ± 0.1 nM.

Source of the values: publication PMC9354082, “5-HT3 Receptor MX Helix Contributes to Receptor Function” (ACS Chemical Neuroscience, 2022).
